Experimental data: the supplement of paper PMC9938120

What was measured:
Test in all cases: drug sensitivity score (DSS3, normalised partial AUC of % inhibition dose-response) (DSS (score)); higher = more sensitive (stronger inhibition of viability); extreme values may be limits of the assay
[1] = system: FMOC02_1 (patient-derived low-grade serous ovarian cancer cells); settings: 72 h; library: FO5A; assay format: 2D, 384-well, CellTiter-Glo
Procedure, shortened: (§1)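 Early-passage (under 10) patient-derived ovarian cancer cells were dispensed onto 384-well flat clear-bottom plates pre-plated with compounds at five concentrations spanning a 10,000-fold range, then incubated 72 h at 37 °C, 5% CO2. Viability was read with CellTiter-Glo, and the data were processed in Breeze. The drug sensitivity score is a partial area under the percent-inhibition dose-response curve divided by the log of the upper asymptote, with higher values meaning greater sensitivity.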

[2] = system: FMOC02_2 (patient-derived low-grade serous ovarian cancer cells); settings: 72 h; library: FO5A; assay format: 2D, 384-well, CellTiter-Glo
Procedure, shortened: as §1

[3] = system: FMOC02_3 (patient-derived low-grade serous ovarian cancer cells); settings: 72 h; library: FO5A; assay format: 2D, 384-well, CellTiter-Glo
Procedure, shortened: as §1

[4] = system: FMOC03 (patient-derived mucinous ovarian cancer cells); settings: 72 h; library: FO5A; assay format: 2D, 384-well, CellTiter-Glo
Procedure, shortened: as §1

[5] = system: FMOC04 (patient-derived high-grade serous ovarian cancer cells); settings: 72 h; library: FO5A; assay format: 2D, 384-well, CellTiter-Glo
Procedure, shortened: as §1

[6] = system: FMOC06 (patient-derived mucinous ovarian cancer cells); settings: 72 h; library: FO5A; assay format: 2D, 384-well, CellTiter-Glo
Procedure, shortened: as §1

[7] = system: FMOC09 (patient-derived high-grade serous ovarian cancer cells); settings: 72 h; library: FO5A; assay format: 2D, 384-well, CellTiter-Glo
Procedure, shortened: as §1

[8] = system: FMOC11 (patient-derived high-grade serous ovarian cancer cells); settings: 72 h; library: FO5A; assay format: 2D, 384-well, CellTiter-Glo
Procedure, shortened: as §1

[9] = system: FMOC14 (patient-derived high-grade serous ovarian cancer cells); settings: 72 h; library: FO5A; assay format: 2D, 384-well, CellTiter-Glo
Procedure, shortened: as §1

[10] = system: FMOC17 (patient-derived low-grade serous ovarian cancer cells); settings: 72 h; library: FO5A; assay format: 2D, 384-well, CellTiter-Glo
Procedure, shortened: as §1

[11] = system: FMOC22 (patient-derived mucinous ovarian cancer cells); settings: 72 h; library: FO5A; assay format: 2D, 384-well, CellTiter-Glo
Procedure, shortened: as §1

[12] = system: FMOC24 (patient-derived high-grade serous ovarian cancer cells); settings: 72 h; library: FO5A; assay format: 2D, 384-well, CellTiter-Glo
Procedure, shortened: as §1

[13] = system: FMOC25_1 (patient-derived low-grade serous ovarian cancer cells); settings: 72 h; library: FO4B; assay format: 2D, 384-well, CellTiter-Glo
Procedure, shortened: as §1

[14] = system: FMOC25_2 (patient-derived low-grade serous ovarian cancer cells); settings: 72 h; library: FO5A; assay format: 2D, 384-well, CellTiter-Glo
Procedure, shortened: as §1

[15] = system: FMOC27 (patient-derived low-grade serous ovarian cancer cells); settings: 72 h; library: FO5A; assay format: 2D, 384-well, CellTiter-Glo
Procedure, shortened: as §1

[16] = system: FMOC28 (patient-derived low-grade serous ovarian cancer cells); settings: 72 h; library: FO5A; assay format: 2D, 384-well, CellTiter-Glo
Procedure, shortened: as §1

Structure (SMILES): C=C(c1ccc(C(=O)O)cc1)c1cc2c(cc1C)C(C)(C)CCC2(C)C [Bexarotene]
- drug sensitivity score [1]: 0
- drug sensitivity score [2]: 6
- drug sensitivity score [3]: 4.3
- drug sensitivity score [4]: 1.7
- drug sensitivity score [5]: 0
- drug sensitivity score [6]: 0
- drug sensitivity score [7]: 1.8
- drug sensitivity score [8]: 1.2
- drug sensitivity score [9]: 0
- drug sensitivity score [10]: 0.1
- drug sensitivity score [11]: 1.1
- drug sensitivity score [12]: 0.9
- drug sensitivity score [13]: 0.3
- drug sensitivity score [14]: 0
- drug sensitivity score [15]: 1.5
- drug sensitivity score [16]: 5.3

Structure (SMILES): O=c1[nH]c(C2CCCN2)nc2c1oc1ccc(Cl)cc12 (stereo unspecified)
- drug sensitivity score [1]: 2.7
- drug sensitivity score [2]: 0
- drug sensitivity score [3]: 3.9
- drug sensitivity score [4]: 0.3
- drug sensitivity score [5]: 0
- drug sensitivity score [6]: 0
- drug sensitivity score [7]: 0
- drug sensitivity score [8]: 0.4
- drug sensitivity score [9]: 0
- drug sensitivity score [10]: 0
- drug sensitivity score [11]: 0
- drug sensitivity score [12]: 0
- drug sensitivity score [13]: 2
- drug sensitivity score [14]: 0
- drug sensitivity score [15]: 0
- drug sensitivity score [16]: 4.4

Structure (SMILES): C[C@@H]1CN(Cc2ccc(F)cc2)[C@@H](C)CN1C(=O)c1cc2c(C(=O)C(=O)N(C)C)cn(C)c2cc1Cl [Talmapimod]
- drug sensitivity score [1]: 0
- drug sensitivity score [2]: 0
- drug sensitivity score [3]: 0
- drug sensitivity score [4]: 0
- drug sensitivity score [5]: 0
- drug sensitivity score [6]: 0
- drug sensitivity score [7]: 0
- drug sensitivity score [8]: 0.2
- drug sensitivity score [9]: 0
- drug sensitivity score [10]: 0
- drug sensitivity score [11]: 0
- drug sensitivity score [12]: 0
- drug sensitivity score [13]: 0
- drug sensitivity score [14]: 0
- drug sensitivity score [15]: 0
- drug sensitivity score [16]: 1.2

Structure (SMILES): N[C@@H]1CCCN(c2c(/C=C3\SC(=O)NC3=O)cccc2-c2ccccc2)C1 [AZD1208]
- drug sensitivity score [1]: 1
- drug sensitivity score [2]: 0
- drug sensitivity score [3]: 5.9
- drug sensitivity score [4]: 0
- drug sensitivity score [5]: 0
- drug sensitivity score [6]: 4.7
- drug sensitivity score [7]: 3.2
- drug sensitivity score [8]: 0
- drug sensitivity score [9]: 0
- drug sensitivity score [10]: 0
- drug sensitivity score [11]: 0
- drug sensitivity score [12]: 0
- drug sensitivity score [13]: 0.5
- drug sensitivity score [14]: 2.4
- drug sensitivity score [15]: 0
- drug sensitivity score [16]: 0

Structure (SMILES): CNC(=O)c1cc(COc2nnc(Nc3ccc(Cl)cc3)c3ccoc23)ccn1 [Telatinib]
- drug sensitivity score [1]: 1.2
- drug sensitivity score [2]: 1.7
- drug sensitivity score [3]: 0
- drug sensitivity score [4]: 0
- drug sensitivity score [5]: 0.05
- drug sensitivity score [6]: 0
- drug sensitivity score [7]: 0
- drug sensitivity score [8]: 0
- drug sensitivity score [9]: 0
- drug sensitivity score [10]: 2.5
- drug sensitivity score [11]: 0
- drug sensitivity score [12]: 0.4
- drug sensitivity score [13]: 0
- drug sensitivity score [14]: 0
- drug sensitivity score [15]: 0
- drug sensitivity score [16]: 0

Structure (SMILES): CNC(=O)c1cc(Oc2ccc(NC(=O)Nc3ccc(Cl)c(C(F)(F)F)c3)cc2)ccn1 [Sorafenib]
- drug sensitivity score [1]: 0
- drug sensitivity score [2]: 0
- drug sensitivity score [3]: 0
- drug sensitivity score [4]: 0
- drug sensitivity score [5]: 0
- drug sensitivity score [6]: 0
- drug sensitivity score [7]: 0
- drug sensitivity score [8]: 0
- drug sensitivity score [9]: 0
- drug sensitivity score [10]: 0.5
- drug sensitivity score [11]: 0
- drug sensitivity score [12]: 0
- drug sensitivity score [13]: 0
- drug sensitivity score [14]: 0
- drug sensitivity score [15]: 0
- drug sensitivity score [16]: 0

Structure (SMILES): CCn1c(C(=O)N(C2CC2)C2CC2)cc2c3c(ncn3C)c(Nc3cc(C)n(C)n3)nc21
- drug sensitivity score [1]: 0.6
- drug sensitivity score [2]: 1.4
- drug sensitivity score [3]: 4.7
- drug sensitivity score [4]: 0.9
- drug sensitivity score [5]: 0
- drug sensitivity score [6]: 0
- drug sensitivity score [7]: 2.1
- drug sensitivity score [8]: 0.1
- drug sensitivity score [9]: 0
- drug sensitivity score [10]: 2.8
- drug sensitivity score [11]: 0
- drug sensitivity score [12]: 1.05
- drug sensitivity score [13]: 0
- drug sensitivity score [14]: 0.4
- drug sensitivity score [15]: 0.8
- drug sensitivity score [16]: 0.9

Structure (SMILES): CC[C@H](C)C(=O)O[C@H]1C[C@@H](C)C=C2C=C[C@H](C)[C@H](CC[C@@H]3C[C@@H](O)CC(=O)O3)[C@H]21 [Lovastatin]
- drug sensitivity score [1]: 0
- drug sensitivity score [2]: 0.3
- drug sensitivity score [3]: 3.9
- drug sensitivity score [4]: 0.5
- drug sensitivity score [5]: 0
- drug sensitivity score [6]: 0.9
- drug sensitivity score [7]: 3.3
- drug sensitivity score [8]: 1.3
- drug sensitivity score [9]: 0
- drug sensitivity score [10]: 1.1
- drug sensitivity score [11]: 2.1
- drug sensitivity score [12]: 2.5
- drug sensitivity score [13]: 0
- drug sensitivity score [14]: 1
- drug sensitivity score [15]: 0
- drug sensitivity score [16]: 0.1

Structure (SMILES): Cn1cc(C[C@@H](N)C(=O)O)c2ccccc21 [1-methyl-D-tryptophan]
- drug sensitivity score [1]: 0
- drug sensitivity score [2]: 0
- drug sensitivity score [3]: 0
- drug sensitivity score [4]: 0
- drug sensitivity score [5]: 0
- drug sensitivity score [6]: 0
- drug sensitivity score [7]: 0.2
- drug sensitivity score [8]: 0
- drug sensitivity score [9]: 0
- drug sensitivity score [10]: 0
- drug sensitivity score [11]: 0
- drug sensitivity score [12]: 0
- drug sensitivity score [13]: 0
- drug sensitivity score [14]: 0
- drug sensitivity score [15]: 0
- drug sensitivity score [16]: 0.5

Structure (SMILES): N#CC1(c2ccc(NC(=O)c3cccnc3NCc3ccncc3)cc2)CCCC1 [Apatinib]
- drug sensitivity score [1]: 0.3
- drug sensitivity score [2]: 1.1
- drug sensitivity score [3]: 1.5
- drug sensitivity score [4]: 0
- drug sensitivity score [5]: 0.6
- drug sensitivity score [6]: 0
- drug sensitivity score [7]: 0
- drug sensitivity score [8]: 0
- drug sensitivity score [9]: 0
- drug sensitivity score [10]: 0
- drug sensitivity score [11]: 0
- drug sensitivity score [12]: 0.1
- drug sensitivity score [13]: 2.3
- drug sensitivity score [14]: 1.5
- drug sensitivity score [15]: 0
- drug sensitivity score [16]: 4.5

Structure (SMILES): CNC(=O)c1ccc2cc([C@@]3(O)CCn4cncc43)ccc2c1 [Orteronel]
- drug sensitivity score [1]: 0
- drug sensitivity score [2]: 0
- drug sensitivity score [3]: 0
- drug sensitivity score [4]: 0
- drug sensitivity score [5]: 0
- drug sensitivity score [6]: 0
- drug sensitivity score [7]: 0
- drug sensitivity score [8]: 0
- drug sensitivity score [9]: 0
- drug sensitivity score [10]: 0
- drug sensitivity score [11]: 0
- drug sensitivity score [12]: 0
- drug sensitivity score [13]: 0
- drug sensitivity score [14]: 1.4
- drug sensitivity score [15]: 0
- drug sensitivity score [16]: 0.2
